Measurements: paper PMC6588349 (eLife, 2019)

Tests used:
[1] = target: T1, isolated mGluR2 TMD (SNAP-mGluR2-TMD) (Rattus norvegicus, UniProt P31421); assay: GIRK activation assay, whole cell patch clamp, isolated mGluR2 TMD; format: cell-based; conditions: normalized to saturating LY48
T1 construct: mGluR2-TMD (rat) starts at Q558; expressed in transfected cells; host or cells: HEK 293T
Protocol: (§1) Cells were cultured in DMEM with 5% FBS on poly-L-lysine-coated glass coverslips. DNA plasmids were transfected into cells using Lipofectamine 3000 (Thermo Fisher). […] For single-molecule pulldown (SiMPull) experiments, cells were transfected with 0.7 μg DNA of HA and SNAP-tagged receptor constructs, unless otherwise noted. For FRET experiments, cells were transfected with either SNAP-tagged constructs at 0.5–0.7 μg of DNA/well or SNAP and CLIP-tagged constructs at a ratio of 1:2 with 0.3 μg of SNAP DNA/well.
(§2) Whole-cell patch clamp recordings from single isolated cells were performed 24–36 hr after transfection in a high-potassium extracellular solution containing (in mM): 120 KCl, 29 NaCl, 1 MgCl2, 2 CaCl2 and 10 HEPES, pH 7.4. Cells were voltage clamped to −60 mV using an Axopatch 200B amplifier (Axon Instruments) and membrane currents were recorded. Glass pipettes of resistance between 3 and 8 MΩ were filled with intracellular solution containing (in mM): 140 KCl, 10 HEPES, 3 Na2ATP, 0.2 Na2GTP, 5 EGTA and 3 MgCl2, pH 7.4. Data were acquired with a 2 kHz acquisition rate and filtered with the amplifier 4-pole Bessel filter at 1 kHz. Drugs were prepared in extracellular solution and applied using a gravity-driven perfusion system. Data were analyzed with Clampfit (Molecular Devices) and Prism (GraphPad). Data for all conditions came from at least two separate transfections.

full-length mGluR2 = target: T2, full-length mGluR2 (Rattus norvegicus, UniProt P31421); assay: Calcium imaging assay, HEK cells with full-length mGluR2, GCaMP6f and Gαiq chimera; format: cell-based
T2 construct: HEK 293T cells expressing full-length mGluR2; expressed in transfected cells; host or cells: HEK 293T
Protocol: as §1
Experiments were conducted with continuous gravity-driven perfusion on an inverted microscope (Olympus IX73) and imaged with a 20x objective. […] Regions of interest were selected in Olympus cellSens software and represent single cells or small cell clusters (2–3 cells). Data analysis was performed in Microsoft Excel, where intensities were normalized to the baseline prior to drug application. Dose–response curves were fit using Prism (Graphpad) and data comes from at least two independent experiments for each LY48 concentration.

SNAP-mGluR2-TMD-N735D [2] = target: T3, SNAP-mGluR2-TMD-N735D (Rattus norvegicus, UniProt P31421, N735D); assay: Inter-TMD FRET assay, N735D mutant; format: cell-based; conditions: SNAP-mGluR2-TMD-N735D; normalized to saturating LY48; read-out: inter-TMD FRET increase EC50, N735D
T3 construct: Following SNAP tag, mGluR2 truncatd to position Q558; N at position 735 replaced with D; expressed in transfected cells; host or cells: HEK 293T
Protocol: (§3) Fluorophores were diluted in EX solution, which was also used to wash coverslips following labeling and prior to mounting on the microscope. After labeling, cells were mounted on an inverted microscope (Olympus IX73) and imaged with a 60x objective. […] Clusters of cells were analyzed together using ImageJ and FRET was calculated as FRET=(IAcceptor)/(IDonor +IAcceptor) where I is fluorescence intensity. No corrections were made for bleed-through between channels or the contribution of donor-donor or acceptor-acceptor dimers as analysis was limited to relative FRET changes between drug treatments rather than absolute FRET values. […] FRET changes calculated for dose–response curves were normalized to the response to saturating […] applied within the same recording and dose–response curves were obtained from multiple cell clusters and averaged from at least three separate experiments. Dose–response curves were fit using Prism (Graphpad). All drugs were purchased from Tocris, prepared in EX solution, and delivered with a gravity-driven perfusion system. For kinetics measurements a pressurized perfusion system (Automate Scientific) was used to produce a flow rate of 0.5 mL/s. Kinetic analysis was performed in Microsoft Excel. The time between 10% and 90% FRET increase or decrease was determined manually. […]

SNAP-mGluR2-TMD-N735D [3] = assay: Inter-TMD FRET assay, N735D mutant; format: cell-based, Rattus norvegicus; conditions: N735D compared to wild-type receptor
Protocol: as §3

SNAP-mGluR2 = target: T4, SNAP-mGluR2 (Rattus norvegicus, UniProt P31421); assay: Single-molecule pulldown (SiMPull) photobleaching step counting, full-length SNAP-mGluR2; conditions: 1 mM glutamate and 10 µM LY48
T4 construct: HEK 293T cells expressing full-length mGluR2; expressed in transfected cells; host or cells: HEK 293T
Protocol: To restrict our analysis to surface-targeted receptors, we expressed N-terminally SNAP-tagged receptor variants and labeled them with membrane-impermeable fluorophores.
To test this, we incubated SNAP-mGluR2-TMD expressing cells and lysates with PAMs or NAMs during the SiMPull experiment.
Briefly, to prevent non-specific sticking of proteins, flow chambers were prepared with mPEG-passivated glass slides and coverslips doped with ~1% biotinylated mPEG, as previously described. Prior to each experiment, chambers were incubated with 0.2 mg/mL NeutrAvidin (ThermoFisher) for 2 min followed by 10 nM of a biotinylated anti-HA antibody (abcam ab26228) for 20–30 min. After each conjugation step, the chambers were washed with T50 buffer (50 mM NaCl, 10 mM Tris, pH 7.5).
After labeling, cells were dissociated from coverslips by incubating with Ca^2+-free PBS for 20 min followed by gentle pipetting. […] Following 1 hr of lysis at 4°C, cells were centrifuged at 16,000 g for 20 min before the supernatant was collected and maintained on ice. The cell lysate was diluted in a 0.1% detergent dilution buffer to obtain sparse immobilization of labeled protein on the passivated slide. […]
Single molecules were imaged with a 100x objective on an inverted microscope (Olympus IX73) in total internal reflection fluorescence (TIRF) mode. […]

mGluR2-N735D = target: T5, mGluR2-N735D (Rattus norvegicus, UniProt P31421, N735D); assay: GIRK activation assay, whole cell patch clamp, mGluR2-N735D; format: cell-based; conditions: relative to wild-type / saturating glutamate
T5 construct: expressed in transfected cells; host or cells: HEK 293T
Protocol: as §2

T5 sequence (P31421 19-872 N735D): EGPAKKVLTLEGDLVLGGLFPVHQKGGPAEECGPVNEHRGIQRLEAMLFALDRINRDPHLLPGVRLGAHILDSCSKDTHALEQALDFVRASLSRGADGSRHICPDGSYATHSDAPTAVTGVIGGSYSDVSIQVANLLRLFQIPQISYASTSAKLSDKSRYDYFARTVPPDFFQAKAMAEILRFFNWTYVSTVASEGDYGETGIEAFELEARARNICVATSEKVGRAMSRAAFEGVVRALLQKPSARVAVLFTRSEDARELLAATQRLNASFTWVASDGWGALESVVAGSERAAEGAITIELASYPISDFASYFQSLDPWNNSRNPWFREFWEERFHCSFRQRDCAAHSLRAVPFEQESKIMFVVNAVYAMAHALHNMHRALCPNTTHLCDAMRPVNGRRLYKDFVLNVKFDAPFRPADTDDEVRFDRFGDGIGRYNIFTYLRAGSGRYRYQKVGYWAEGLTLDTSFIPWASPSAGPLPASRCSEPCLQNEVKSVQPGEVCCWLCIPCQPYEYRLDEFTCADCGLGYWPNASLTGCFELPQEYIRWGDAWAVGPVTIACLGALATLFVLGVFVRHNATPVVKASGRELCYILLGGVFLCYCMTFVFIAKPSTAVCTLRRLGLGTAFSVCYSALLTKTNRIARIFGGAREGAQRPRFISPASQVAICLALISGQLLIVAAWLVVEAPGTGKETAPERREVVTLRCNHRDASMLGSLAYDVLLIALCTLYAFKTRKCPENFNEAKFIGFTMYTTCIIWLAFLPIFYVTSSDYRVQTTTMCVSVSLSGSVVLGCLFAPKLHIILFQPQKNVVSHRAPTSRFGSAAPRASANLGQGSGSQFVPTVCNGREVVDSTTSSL
T2 sequence (P31421 19-872): as the sequence (P31421 19-872 N735D) above, with D717N counted along it
T4 sequence (P31421 19-872): as the sequence (P31421 19-872 N735D) above, with D717N counted along it
T1 sequence (P31421 558-872 limits assumed): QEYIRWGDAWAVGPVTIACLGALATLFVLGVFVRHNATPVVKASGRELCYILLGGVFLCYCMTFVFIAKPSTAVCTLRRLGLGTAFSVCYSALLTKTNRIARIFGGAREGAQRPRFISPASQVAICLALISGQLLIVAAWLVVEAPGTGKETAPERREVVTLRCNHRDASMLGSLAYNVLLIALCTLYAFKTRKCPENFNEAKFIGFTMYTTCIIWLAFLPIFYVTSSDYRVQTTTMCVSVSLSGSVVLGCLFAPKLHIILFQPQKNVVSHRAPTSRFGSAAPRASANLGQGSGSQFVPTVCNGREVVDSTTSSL
T3 sequence (P31421 558-872 N735D): as the sequence (P31421 558-872 limits assumed) above, with N178D counted along it

EC50 [1]: 140 ± 10 nM
EC50 (full-length mGluR2): 1200 ± 200 nM
EC50 (SNAP-mGluR2-TMD-N735D [2]): 20500 ± 1400 nM
two-step bleaching events of SNAP-mGluR2 with glutamate plus LY48 (SNAP-mGluR2): ~ 60%
GIRK activation of mGluR2-N735D (mGluR2-N735D): drastically reduced activation
Structure (SMILES): COc1ccccc1Oc1ccc(N(Cc2cccnc2)S(=O)(=O)CC(F)(F)F)cc1 [LY48]
rightward shift of inter-TMD FRET dose-response curve, N735D versus wild-type (SNAP-mGluR2-TMD-N735D [3]): ~ 20 fold
